Results as given in ChEMBL document CHEMBL1201862, “PubChem BioAssay data set” (2004).
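Dose response: 5 concentrations. Exposure: 48 h. Format: 96-well plates. Endpoint: linear interpolation; highest concentration if not reached. Abbreviation: GI50, concentration required for 50% inhibition of growth.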 The source made the active and inactive calls. Cut-off read from the data, not from the text of the source: active = GI50 up to about 1.1 µM and inactive = higher.

Key:
Experiment in all cases: NCI anticancer screen, dose series, 48 h
[1] = system: 786-0
[2] = system: ACHN
[3] = system: CAKI-1
[4] = system: HCT-116
[5] = system: K562
[6] = system: KM12
[7] = system: NCI-H23
[8] = system: NCI-H522
[9] = system: OVCAR-5
[10] = system: RXF 393
[11] = system: SK-MEL-28
[12] = system: SNB-19
[13] = system: U-251
[14] = system: UACC-62
[15] = system: UO-31
[16] = system: LOX IMVI

Measured: GI50

CN(C)C(=S)/N=c1\ssc(=S)n1-c1ccccc1
inactive: [1] 16.8 µM | [2] 16.7 µM | [3] 19.2 µM | [4] 13.7 µM | [5] 17.1 µM | [6] 5.38 µM | [7] 24.2 µM | [8] 14.5 µM | [9] 16 µM | [10] 18.7 µM | [11] 16.7 µM | [12] 39.6 µM | [13] 15.8 µM | [14] 16 µM | [15] 23.3 µM

Cc1cccc(C)c1NC(=O)CCc1n[nH]c(=S)o1
inactive: [1] 71.9 µM | [2] > 100 µM | [3] > 100 µM | [4] 20.4 µM | [5] 36.2 µM | [6] > 100 µM | [7] > 100 µM | [8] > 100 µM | [9] > 100 µM | [11] > 100 µM | [12] > 100 µM | [13] > 100 µM | [14] > 100 µM | [15] > 100 µM

COc1ccc(C(=O)C(C(=O)C(=O)Nc2ccc(Cl)c(Cl)c2)c2ccc(OC)cc2)cc1 (stereo not given)
inactive: [1] > 100 µM | [2] > 100 µM | [3] > 100 µM | [4] > 100 µM | [5] > 100 µM | [6] > 100 µM | [16] > 100 µM | [7] > 100 µM | [9] > 100 µM | [10] > 100 µM | [11] > 100 µM | [12] > 100 µM | [13] > 100 µM | [14] > 100 µM | [15] > 100 µM

Cc1ccc(C2=Nc3ccccc3SC(c3cccc4c3OCO4)C2)cc1 (stereo not given)
inactive: [1] 19 µM | [2] 20.4 µM | [3] 16.1 µM | [5] 14.8 µM | [6] 15.7 µM | [16] 16.6 µM | [7] 16.7 µM | [8] 13.9 µM | [9] 21.8 µM | [10] > 10 µM | [11] 17.6 µM | [12] 16.1 µM | [14] 20.3 µM | [15] 14.1 µM

Cc1ccc(C(O)(c2ccc(C)cc2)c2ccccn2)cc1
inactive: [1] > 100 µM | [2] > 100 µM | [3] > 100 µM | [4] 68.9 µM | [5] 71.6 µM | [6] > 10 µM | [16] > 100 µM | [7] 80.2 µM | [9] > 100 µM | [11] > 100 µM | [12] > 100 µM | [13] > 100 µM | [14] > 100 µM | [15] 38.3 µM

CC(=O)OC1C(CCl)OC(N=[N+]=[N-])C(OC(C)=O)C1OC(C)=O (stereo not given)
inactive: [1] > 100 µM | [2] > 100 µM | [3] > 100 µM | [4] > 100 µM | [5] > 100 µM | [6] > 100 µM | [7] > 100 µM | [8] > 100 µM | [10] > 100 µM | [11] > 100 µM | [12] > 100 µM | [13] > 100 µM | [14] > 100 µM | [15] > 100 µM

COc1cccc(/C=C(/C(=O)O)c2cc(OC)c(OC)c(OC)c2)c1
inactive: [1] > 100 µM | [2] > 100 µM | [3] > 100 µM | [4] > 100 µM | [5] 51.8 µM | [6] > 100 µM | [16] > 100 µM | [8] > 100 µM | [10] 45.2 µM | [11] > 100 µM | [12] > 100 µM | [13] > 100 µM | [14] > 100 µM | [15] > 100 µM
